Where a SMILES comes first, the peptide text is derived from it. Where no end group is shown, it is not given here. [ ]: non-standard residue; d: D form. The star is where a group is joined. Boc = CC(C)(C)OC(=O)*
How the values were obtained:
[1] = target: atrial peptide-degrading enzyme (ADE); assay: Inhibition of ADE activity (AcAPI production from 50 μM AcAPII, HPLC); type: biochemical, bovine; conditions: Table 10
Procedure: The concentration of enzyme and AcAPII were chosen so that approximately 80% of the AcAPII was degraded in the absence of inhibitor. The production of AcAPI was determined by integration of the AcI peak, and percent inhibition by the inhibitors was calculated.
(e.) Enzyme Inhibitor Testing: To further characterize ADE, the extent of inhibition by several known peptidase inhibitors was determined.

[2] = system: spontaneously hypertensive rats; assay: Blood pressure and heart rate measurements in spontaneously hypertensive rats; type: in vivo, rat; design: Diastolic Blood Pressure, Mean Change From Control: unit not given here
Procedure: This experiment was carried out to evaluate the effects of an ADE inhibitor compound of the invention upon blood pressure (systolic and diastolic) and heart rate in spontaneously hypertensive rats ("SHR"). Twenty-eight male SHR, weighing 200-300 g at the initiation of study, having a systolic blood pressure of 160 mm Hg or higher, and obtained from Charles River Laboratories (Wilmington, Mass.), were tested over a nine-day period. The animal room environment and photoperiod were controlled (temperature approximately 22° C.±3° C., humidity of 40 to 70%, 12 h light, 12 h dark), as was diet.
The compounds to be administered (compound (V), above, and rat ANF ("rANF")) were dissolved in a 0.9% saline solution and administered intravenously. The test animals were divided into seven distinct groups for purposes of dose administration, as follows:
Group 1. Four SHR rats were infused with 100 pmole/minute of RANF (0.026 ml/minute) for 20 minutes.
Group 2. Four SHR rats were administered an i.v. bolus of 2 mg/kg of compound (V).
Group 3. Four SHR rats were administered an i.v. bolus of 10 mg/kg of compound (V).
Group 4. Four SHR rats were infused with 0.2 mg/kg/min of compound (V) (0.026 ml/minute) for 20 minutes.
Group 5. Four SHR rats were administered an i.v. bolus of 2 mg/kg of compound (V) and then infused with 100 pmole/minute of RANF (0.026 ml/minute for 20 minutes.
Group 6. Four SHR rats were administered an i.v. bolus of 10 mg/kg of compound (V) and then infused with 100 pmole/minute of RANF (0.026 ml/minute) for 20 minutes.
Group 7. Four SHR rats were infused with 0.2 mg/kg/min of compound (V) (0.026 ml/minute) for 20 minutes and then infused with 100 pmole/minute of RANF ([…]) for 20 minutes.
Blood pressure and heart rate determinations were made at 5 minute intervals for 20 minutes prior to dose and at 5 minute intervals for a minimum of 40 minutes following the initiation of test article administration or until a return to control values was realized. Blood pressure was measured continuously for one minute using a Statham P23Db pressure transducer (Statham Instruments, Hata Rey, Puerto Rico), and a Grass Model 7 Polygraph (Glass Instrument Company, Quincy, Mass.). Heart rate was measured using a Narco biotachometer BT-1200 (Narco Biosystems, Houston, Tex.).

[3] = system: atrial peptide-degrading enzyme (ADE); assay: Degradation of peptide substrates by atrial peptide-degrading enzyme preparation (HPLC); type: biochemical, bovine; conditions: 50 μM substrate, 37° C.
Procedure: (c.) ADE Substrate and Inhibitor Studies: To study substrate selectivity of the atrial peptide-degrading enzyme, the pooled fractions from the Dynamax HPLC ion exchange, or Sephacryl S-200 columns, were incubated with 50 μM synthetic substrate and incubated at 37° C. for one or two hours. At the appropriate time, the samples were boiled, centrifuged and analyzed on the Vydac column as described above. The amount of substrate present after the incubation, as determined by integration of the HPLC peak, was compared with the initial substrate level.

[4] = system: atrial peptide-degrading enzyme (ADE); assay: pooled fractions from the Dynamax HPLC ion exchange, or Sephacryl S-200 columns (ADE isolated from bovine kidney cortex); conditions: 37° C., up to two hours
[5] = (V) 20 min. infusion 0.2 mg/kg/min. i.v., interval 0 min
[6] = (V) 20 min. infusion 0.2 mg/kg/min. i.v., interval 5 min
[7] = (V) 20 min. infusion 0.2 mg/kg/min. i.v., interval 10 min
[8] = (V) 20 min. infusion 0.2 mg/kg/min. i.v., interval 15 min
[9] = (V) 20 min. infusion 0.2 mg/kg/min. i.v., interval 20 min
[10] = (V) 20 min. infusion 0.2 mg/kg/min. i.v., interval 25 min
[11] = (V) 20 min. infusion 0.2 mg/kg/min. i.v., interval 30 min
[12] = (V) 20 min. infusion 0.2 mg/kg/min. i.v., interval 35 min
[13] = (V) 20 min. infusion 0.2 mg/kg/min. i.v., interval 40 min
[14] = (V) bolus injection 2 mg/kg i.v., interval 0 min
[15] = (V) bolus injection 2 mg/kg i.v., interval 5 min
[16] = (V) bolus injection 2 mg/kg i.v., interval 10 min
[17] = (V) bolus injection 2 mg/kg i.v., interval 15 min
[18] = (V) bolus injection 2 mg/kg i.v., interval 20 min
[19] = (V) bolus injection 2 mg/kg i.v., interval 25 min
[20] = (V) bolus injection 2 mg/kg i.v., interval 30 min
[21] = (V) bolus injection 2 mg/kg i.v., interval 35 min
[22] = (V) bolus injection 2 mg/kg i.v., interval 40 min
[23] = (V) bolus injection 10 mg/kg i.v., interval 0 min
[24] = (V) bolus injection 10 mg/kg i.v., interval 5 min
[25] = (V) bolus injection 10 mg/kg i.v., interval 10 min
[26] = (V) bolus injection 10 mg/kg i.v., interval 15 min
[27] = (V) bolus injection 10 mg/kg i.v., interval 20 min
[28] = (V) bolus injection 10 mg/kg i.v., interval 25 min
[29] = (V) bolus injection 10 mg/kg i.v., interval 30 min
[30] = (V) bolus injection 10 mg/kg i.v., interval 35 min
[31] = (V) bolus injection 10 mg/kg i.v., interval 40 min
[32] = (V) bolus injections at 2 and 10 mg/kg
[33] = (V) infusion 0.2 mg/kg/minute for 20 minutes

Molecule: CC(C)C[C@H](NC(=O)[C@@H](N)CO)C(=O)N[C@@H](CCCNC(=N)N)C(=O)N[C@@H](CCCNC(=N)N)C(=O)N[C@@H](CO)C(=O)N[C@@H](CO)C(=O)N[C@H](C)C(=O)NCC(=O)N[C@H](C)C(=O)N[C@@H](CC(N)=O)C(=O)N[C@@H](CS)C(=O)N[C@H](Cc1ccccc1)C(=O)N[C@@H](CCCNC(=N)N)C(=O)N[C@@H](Cc1ccc(O)cc1)C(N)=O [(V), Ser-Leu-Arg-Arg-Ser-Ser-DAla-Gly-DAla-Asn-Cys-DPhe-Arg-Tyr-NH2] (H-SLRRSS[dA]G[dA]NC[dF]RY-NH2)
- IC50 [1]: 14.5 µM
- % Inhibition At 0.1 mM ([1]; 0.1 mM): 81%
- Diastolic Blood Pressure, Mean Change From Control [2, 5]: -4
- Systolic Blood Pressure, Mean Change From Control [2, 5]: -1
- Diastolic Blood Pressure, Mean Change From Control [2, 6]: -12
- Systolic Blood Pressure, Mean Change From Control [2, 6]: -10
- Diastolic Blood Pressure, Mean Change From Control [2, 7]: -15
- Systolic Blood Pressure, Mean Change From Control [2, 7]: -18
- Diastolic Blood Pressure, Mean Change From Control [2, 8]: -18
- Systolic Blood Pressure, Mean Change From Control [2, 8]: -16
- Diastolic Blood Pressure, Mean Change From Control [2, 9]: -20
- Systolic Blood Pressure, Mean Change From Control [2, 9]: -26
- Diastolic Blood Pressure, Mean Change From Control [2, 10]: -13
- Systolic Blood Pressure, Mean Change From Control [2, 10]: -16
- Diastolic Blood Pressure, Mean Change From Control [2, 11]: -14
- Systolic Blood Pressure, Mean Change From Control [2, 11]: -9
- Diastolic Blood Pressure, Mean Change From Control [2, 12]: 0
- Systolic Blood Pressure, Mean Change From Control [2, 12]: 0
- Diastolic Blood Pressure, Mean Change From Control [2, 13]: -2
- Systolic Blood Pressure, Mean Change From Control [2, 13]: +5
- Duration of the blood pressure lowering following administration ([2]; (V) bolus 2 mg/kg): 20 min
- Duration of the blood pressure lowering following administration ([2]; (V) bolus 10 mg/kg): 35 min
- Diastolic Blood Pressure, Mean Change From Control [2, 14]: -61
- Systolic Blood Pressure, Mean Change From Control [2, 14]: -80
- Diastolic Blood Pressure, Mean Change From Control [2, 15]: -40
- Systolic Blood Pressure, Mean Change From Control [2, 15]: -50
- Diastolic Blood Pressure, Mean Change From Control [2, 16]: -14
- Systolic Blood Pressure, Mean Change From Control [2, 16]: -30
- Diastolic Blood Pressure, Mean Change From Control [2, 17]: -8
- Systolic Blood Pressure, Mean Change From Control [2, 17]: -14
- Diastolic Blood Pressure, Mean Change From Control [2, 18]: -10
- Systolic Blood Pressure, Mean Change From Control [2, 18]: -13
- Diastolic Blood Pressure, Mean Change From Control [2, 19]: +1
- Systolic Blood Pressure, Mean Change From Control [2, 19]: -4
- Diastolic Blood Pressure, Mean Change From Control [2, 20]: +5
- Systolic Blood Pressure, Mean Change From Control [2, 20]: +1
- Diastolic Blood Pressure, Mean Change From Control [2, 21]: +7
- Systolic Blood Pressure, Mean Change From Control [2, 21]: +2
- Diastolic Blood Pressure, Mean Change From Control [2, 22]: 0
- Systolic Blood Pressure, Mean Change From Control [2, 22]: +4
- Diastolic Blood Pressure, Mean Change From Control [2, 23]: -66
- Systolic Blood Pressure, Mean Change From Control [2, 23]: -76
- Diastolic Blood Pressure, Mean Change From Control [2, 24]: -76
- Systolic Blood Pressure, Mean Change From Control [2, 24]: -119
- Diastolic Blood Pressure, Mean Change From Control [2, 25]: -61
- Systolic Blood Pressure, Mean Change From Control [2, 25]: -100
- Diastolic Blood Pressure, Mean Change From Control [2, 26]: -55
- Systolic Blood Pressure, Mean Change From Control [2, 26]: -84
- Diastolic Blood Pressure, Mean Change From Control [2, 27]: -35
- Systolic Blood Pressure, Mean Change From Control [2, 27]: -55
- Diastolic Blood Pressure, Mean Change From Control [2, 28]: -27
- Systolic Blood Pressure, Mean Change From Control [2, 28]: -41
- Diastolic Blood Pressure, Mean Change From Control [2, 29]: -17
- Systolic Blood Pressure, Mean Change From Control [2, 29]: -29
- Diastolic Blood Pressure, Mean Change From Control [2, 30]: -15
- Systolic Blood Pressure, Mean Change From Control [2, 30]: -21
- Diastolic Blood Pressure, Mean Change From Control [2, 31]: +10
- Systolic Blood Pressure, Mean Change From Control [2, 31]: +9
- Effect on systolic and diastolic blood pressure, in words [2, 32]: Dose-related decreases in systolic and diastolic blood pressure
- Effect upon heart rate [2, 32]: No effects upon heart rate
- Duration of blood pressure decrease following the conclusion of the dose [2, 33]: 10 min
- Effect on systolic and diastolic blood pressure, in words [2, 33]: minimal decreases in systolic and diastolic blood pressure
- Effect upon heart rate [2, 33]: No effects upon heart rate

Molecule: COC(=O)[C@H](Cc1ccccc1)NC(=O)[C@H](CO)NC(=O)[C@H](CC(N)=O)NC(=O)OC(C)(C)C [Boc--Asn--Ser--Phe--OCH3] (Boc-Asn-Ser-Phe-OMe)
- % Degraded (small peptides) ([3]; one or two hours): 0%

Molecule: CC(C)C[C@H](NC(=O)CNC(=O)[C@H](Cc1ccc(O)cc1)NC(=O)[C@H](CO)NC(=O)[C@H](Cc1c[nH]c2ccccc12)NC(=O)[C@H](Cc1c[nH]cn1)NC(=O)[C@@H]1CCC(=O)N1)C(=O)N[C@@H](CCCNC(=N)N)C(=O)N1CCC[C@H]1C(=O)NCC(N)=O [LHRH, pGlu--His--Trp--Ser--Tyr--Gly--Leu--Arg--Pro--Gly-NH2]
- % Degraded 1 h [3]: 0%

Molecule: ANF: atrial natriuretic factor, carboxy terminal 28 amino acid fragment of α-ANF
- % Degraded 1 h [3]: > 95%

Molecule: API: rat atriopeptin I, atrial peptide prepared by solid phase synthesis (SSCFGGRIDRIGAQSGLGCNS; ends and bridges not checked; cysteine pairing not given here; UniProt P01161 127-147, looked up)
- % Degraded 1 h [3]: 0%
- % Degraded 2 h ([3]; 2 h): 0%

Molecule: Asn--Ser--Phe--Arg--Tyr
- not cleaved [4]: 8% degraded

Molecule: Boc-Asn-Ser-Phe-OMe
- not cleaved [4]: 0% degraded

Molecule: DVNTDRPG
- not cleaved [4]: 4% degraded at 1 h, 6% degraded at 2 h

Molecule: Hip--Ser--Phe--Arg
- not cleaved [4]: 0% degraded

Molecule: LYKKIIKKLLES
- not cleaved [4]: 0% degraded at 2 h

Molecule: pGlu--His--Trp--Ser--Tyr--Gly--Leu--Arg--Pro--Gly-NH2
- not cleaved [4]: 0% degraded at 1 h

Reference: US5262521A (SRI International, priority 1991, dated 1993)
